The source of these data is PMC8353826, “Celastrol exerts a neuroprotective effect by directly binding to HMGB1 protein in cerebral ischemia–reperfusion” (Journal of Neuroinflammation, 2021).

Test [1] has as its target T1, HMGB1 (primary rat cortical neurons) (Rattus norvegicus, UniProt P63159).
T1 construct: endogenous full-length protein in living primary cortical neurons or their lysate
T1 sequence (P63159 2-215): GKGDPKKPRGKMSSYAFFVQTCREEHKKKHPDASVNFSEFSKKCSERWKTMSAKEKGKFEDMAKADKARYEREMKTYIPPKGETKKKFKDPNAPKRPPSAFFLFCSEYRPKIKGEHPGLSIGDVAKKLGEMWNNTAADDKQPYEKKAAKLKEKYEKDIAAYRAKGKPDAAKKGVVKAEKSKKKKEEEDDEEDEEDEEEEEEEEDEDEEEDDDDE
Description: CETSA in neuron lysate, Western blot; competition with cel-p pull-down. It counts as biochemical. The note with it: 20 μM cel, 1 h, 37-82 °C (CETSA); 8 × cel in pull-down. (In western blotting, separated proteins are transferred to a membrane and probed.)

For test [2], the target named is T2, HMGB1 B box (Homo sapiens, UniProt P09429).
T2 construct: B box domain, residues 90-175, N-terminal 6-His tag, modified pET-24d, E. coli BL21
T2 sequence (P09429 90-175): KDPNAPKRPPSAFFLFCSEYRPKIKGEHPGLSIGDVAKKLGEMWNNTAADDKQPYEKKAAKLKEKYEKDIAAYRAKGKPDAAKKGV
In words: gel-based competition with IAA-yne labelling, click TAMRA fluorescence. It counts as binding. The note with it: covalent; blocks IAA-yne labelling of Cys; PBS.

Test [3] addresses T3, HMGB1 A box (Homo sapiens, UniProt P09429).
T3 construct: A box domain, residues 1-89, N-terminal 6-His tag, modified pET-24d, E. coli BL21
T3 sequence (P09429 1-89): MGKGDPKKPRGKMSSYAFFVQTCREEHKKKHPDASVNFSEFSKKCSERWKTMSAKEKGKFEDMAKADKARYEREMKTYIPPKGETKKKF
Described as above. It counts as binding. The note with it: covalent; blocks IAA-yne labelling of Cys; PBS.

The target in test [4] is T4, recombinant human HMGB1 protein (full-length) (Homo sapiens, UniProt P09429).
T4 construct: full-length recombinant protein, commercial (Abcam); disulfide form or DTT-reduced
T4 sequence (P09429 1-215): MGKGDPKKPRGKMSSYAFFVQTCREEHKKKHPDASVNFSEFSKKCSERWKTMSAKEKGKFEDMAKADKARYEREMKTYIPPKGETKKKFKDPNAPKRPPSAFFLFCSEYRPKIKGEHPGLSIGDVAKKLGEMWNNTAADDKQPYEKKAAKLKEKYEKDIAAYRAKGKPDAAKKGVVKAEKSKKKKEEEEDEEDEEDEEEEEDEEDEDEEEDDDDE
Described as above. The note with it: covalent; Cys 106 of disulfide form or Cys 23, 45, 106 of fully reduced form, also other sites; PBS. It counts as binding.

Test [5] deals with T3, HMGB1 A box. In words: in-gel fluorescence labelling by probe, click TAMRA azide. It counts as binding. The note with it: labelled compound; labelling in presence of IAA; PBS.
The target in test [6] is T2, HMGB1 B box. Described as above. To be noted: labelled compound; labelling in presence of IAA; PBS. The test is classed as binding.
In test [7] the target is T1, HMGB1 (primary rat cortical neurons). In words: probe pull-down, TMT LC-MS/MS and Western blot. It counts as cell-based. The note with it: labelled compound; 4 μM cel-p, 4 h, living neurons, with or without OGD.

Turning to `CC1=C(O)C(=O)C=C2C1=CC=C1[C@@]2(C)CC[C@@]2(C)[C@@H]3C[C@](C)(C(=O)O)CC[C@]3(C)CC[C@]12C` [cel, celastrol], the “CETSA in neuron lysate, Western blot; competition with cel-p pull-down” value in test [1] was “The CETSA results also proved the direct binding of cel and HMGB1”. Further, the “gel-based competition with IAA-yne labelling, click TAMRA fluorescence” value on HMGB1 B box [2] is “Cel also almost completely blocked the binding of IAA-yne to the Cys group”; on HMGB1 A box [3] it was “Cel also almost completely blocked the binding of IAA-yne to the Cys group”; in test [4] it was “Cel almost completely competed for the binding of IAA-yne to HMGB1 or DTT reduced HMGB1”.

On to `C#CCNC(=O)[C@]1(C)CC[C@]2(C)CC[C@]3(C)C4=CC=C5C(=CC(=O)C(O)=C5C)[C@]4(C)CC[C@@]3(C)[C@@H]2C1` [cel-p], for which the “in-gel fluorescence labelling by probe, click TAMRA azide” value at HMGB1 A box [5] is “The binding of cel-p to the A and B boxes could not be blocked by IAA”; at HMGB1 B box [6], “The binding of cel-p to the A and B boxes could not be blocked by IAA”. In test [7], the “probe pull-down, TMT LC-MS/MS and Western blot” value is listed as “could completely compete the binding of cel-p to HMGB1”.
